Where two headings read alike, the source gives them in different places.
Key:
[1] = test system: HCT116p53KO cells; conditions: 200 μM 5FU, 20 μM ibrutinib, singly or combined, 72 hr
[2] = test system: HCT116p53KO, DLD-1 and SW480 cell lines; experiment: cells; conditions: Homo sapiens, 72 h, read-out: cell mortality
Experimental: The tumor cell line initially used was HCT116p53KO (which differs from the wild type (wt) HCT116 due to the lack of gene p53), related to the colon tumor, while further detailed studies of specific genes were carried out on other drug-resistant tumor cell lines of the colon, such as DLD-1 and SW480, as well as on tumor cell lines of the lung and ovary. In particular, all cell lines that were the object of the analysis, were related to tumors of epithelial type.

[3] = test system: HCT116 xenografts; experiment: Subcutaneous xenograft, drug-sensitive tumors; conditions: for increase of the tumor doubling time / reduction in the tumor volume: 5FU versus untreated or ibrutinib-treated group p<0.05; for average volume of the tumor masses: after 28 days, alone or combined, control ≈435
[4] = test system: HCT116 cells; conditions: 72 hr
[5] = test system: HCT116 cells; conditions: 200 μM 5FU, 72 hr
Experimental: (§1) 100% represent the percentage of living cells at day 0, before starting the treatment.
(§2) Viability was evaluated after 72 hr of incubation by calcein assay. 100% represent the percentage of living cells at day 0, before starting treatment with the drugs. […] At the end of the treatment, cell viability was evaluated by calcein assay. 100% represent the percentage of living cells at day 0, before starting treatment with the drugs.

[6] = test system: wt HCT116 cells; experiment: cells; conditions: Homo sapiens, HCT-116, 72 h, read-out: cell mortality
[7] = test system: tumor cells of the colon-rectum in advanced phase; conditions: therapy based on 5FU; cited from earlier work
[8] = test system: HCT116p53KO cells; experiment: Calcein cell viability assay, ibrutinib with or without 5FU; type: cell-based, human; conditions: 72 hr; for percentage of live HCT116p53KO cells (100% = living cells at day 0): without ibrutinib 177.5%
Experimental: as §1, §2

[9] = test system: HCT116p53KO xenografts; experiment: Subcutaneous xenograft, drug-resistant tumors; conditions: for average volume of the tumor masses: after 28 days, 5FU 60 mg/kg i.p. twice a week, alone or combined, control ≈955
[10] = test system: HCT116 overexpressing p65BTK (HCT116-p65BTK); conditions: 200 μM 5FU, 72 hr
Experimental: as §2

[11] = test system: HT-29 colon cancer cells; conditions: with 200 μM 5FU, 72 hr
Experimental: Cells were treated for 72 hrs in absence of any drug or in presence of FU 200 μM; 1 μM AVL-292; 1 μM AVL-292+5FU 200 μM; 5 μM AVL-292; 5 μM AVL-292+5FU 200 μM; 10 μM AVL-292; […]; viability was evaluated at the end of the incubation using the calcein assay. FIG. 26a: SW480; FIG. 26b: HT-29.
In the experiments shown in FIG. 26 SW480 and HT-29 colon carcinoma cell lines were grown in vitro for 72 hr in the presence of different concentrations of AVL-292, a small molecule inhibitor of BTK, (Celgene Corporation, Summit, N.J.) (from 0 to 20 μM) and of 5FU (200 μM)+AVL-292 (from 0 to 20 μM); cell viability was evaluated at the end of the incubation using the calcein assay. 100% represent the percentage of living cells at day 0, before starting treatment with the drugs.

[12] = test system: SW480 colon cancer cells; conditions: 72 hr
Experimental: FIG. 26a: SW480; FIG. 26b: HT-29.
as §2
100% represent the percentage of living cells at day 0, before starting treatment with the drugs.

[13] = test system: SKOV cells (ovarian tumor); experiment: Cell death with or without BTK inhibition by LFM-A13; type: cell-based, human; conditions: 200 μM 5FU, 50 μM OxPt, or the combination of the two
Description: (§3) The diminution of the resistance to chemotherapeutic drugs following the functional blocking of the gene BTK by means of LFM-A13 was further confirmed by tests conducted in vitro on epithelial tumor cell lines different from those of the colon. In FIG. 11 levels of BTK have been investigated, by means of Western blot, in several different epithelial carcinoma cell lines showing that the kinase is expressed in most of them. In particular, in FIGS. 12a and 12b, graphs were reported of the reversion tests obtained on SKOV cell lines (related to an ovarian tumor) and A549 cell lines (related to a lung tumor).
(§4) In detail, FIG. 12a compares the percentages of cell deaths in the absence (symbol “NT” and “−”) and presence of 200 μM 5FU, 50 μM OxPt, and the combination of the two upon resistant ovarian (SKOV) cells with or without BTK inhibition through the usage of LMFA13. […] FIG. 12b compares the percentages of cell deaths in the absence (symbol “NT” and “−”) and presence of 200 μM 5FU, 50 μM OxPt, and the combination of the two upon resistant lung (A549) cells with or without BTK inhibition through the usage of LMFA13.

[14] = test system: A549 cells (lung tumor); experiment: as above; type: cell-based, human; conditions: 200 μM 5FU, 50 μM OxPt, or the combination of the two
Description: as §3, §4

[15] = test system: HCT116p53KO cells; experiment: Reversion of 5FU resistance by functional blocking of BTK (cell death); type: cell-based, human; conditions: 200 μM 5FU, 72 hr; agents compared with each other
Description: FIG. 8 is a graph illustrating the reversion of the resistance to a chemotherapeutic drug of tumor cell line HCT116p53KO carried out by means of functional blocking of the gene BTK obtained with different methods.
In FIG. 8, the results of the comparison test are reported in a graph of the functional blocking of the BTK gene by means of plasmids (e.g., encoding p68BTK), siRNA or LFM-A13 in samples of HCT116p53KO cells treated with 5FU. […] In detail, FIG. 8 compares the percentages of cell deaths in the presence of 200 μM 5FU (72 hr treatment) upon wt HCT116 cells and HCT116p53KO drug resistant cells with or without (symbol “empty” and “−”) specific depletions of BTK following transient siRNA transfection (symbol “BTKi”), stable retroviral-mediated RNA interference (symbol “shBTK”), and using LFMA13, an inhibitor compound of BTK.

[16] = test system: HCT116p53KO cells; experiment: Caspase 3/7 activation assay; type: cell-based, human; conditions: 5FU-treated cells in the presence of LFM-A13; luminometric assay
Description: FIG. 14 is a graph illustrating the results of […] caspase activation assays after 72 hrs and 96 hrs in HCT116 and HCT116p53KO colon carcinoma cells treated with 5FU, BTK inhibition, or the combination of the two.
The results have shown that BTK levels determine the sensitivity of tumor cells to 5FU and that BTK inhibition reverses drug-resistance. […] The same finding is also supported by the graph reported in FIG. 14, evaluating the level of caspase 3/7 activation upon 5FU treatment in HCT116p53KO resistant cells in the presence or in the absence of BTK inhibitor LFM-A13. High levels of caspase 3/7 activation, measured by means of a luminometric assay as RLU/number of cells, are observed in 5FU-treated HCT116p53KO cells only when BTK is inhibited.

[17] = test system: HCT116p53KO cells; experiment: Short-term viability under targeted therapy with or without ibrutinib (MTT); type: cell-based, human; conditions: 25 μg/ml bevacizumab, 10 μg/ml cetuximab or 75 μg/ml panitumumab alone, 72 hr
[18] = test system: 5FU-resistant, p53-null (HCT116p53KO, SW480 and HT-29) cell lines; experiment: Calcein cell viability assay, ibrutinib dose range; type: cell-based, human; conditions: highest concentration (range 0 to 30 μM), 72 hours
Description: as §1

[19] = test system: HCT116p53KO, SW480, DLD-1 and HCT116 cell lines; conditions: up to 10 μM, 72 hours
[20] = 5FU 60 mg/kg ± dasatinib 50 mpk, p<0.05
[21] = dasatinib 50 mpk oral gavage once a day 5 days a week
[22] = ibrutinib 25 mpk oral gavage once daily 5 days a week

Compound: O=c1[nH]cc(F)c(=O)[nH]1 [5FU, 5-fluorouracil]
- cell death (photographs) [1]: no cell death
- mortality at 200 µM [2]: < 10%
- increase of the tumor doubling time versus untreated (or dasatinib-treated) group [3, 20]: significant
- reduction in the tumor volume versus untreated (or dasatinib-treated) group [3, 20]: significant
- increase of the tumor doubling time ([3]; 5FU 60 mpk, ibrutinib 25 mpk): significant
- reduction in the tumor volume ([3]; 5FU 60 mpk, ibrutinib 25 mpk): significant
- increase of the tumor doubling time ([3]; 5FU 60 mpk, ibrutinib 50 mpk): significant
- reduction in the tumor volume ([3]; 5FU 60 mpk, ibrutinib 50 mpk): significant
- average volume of the tumor masses ([3]; 5FU 60 mg/kg, dasatinib 50 mpk): 226 mm^3
- average volume of the tumor masses ([3]; 5FU 60 mpk, ibrutinib 25 mpk): ≈ 226 mm^3
- average volume of the tumor masses ([3]; 5FU 60 mpk, ibrutinib 50 mpk): ≈ 226 mm^3
- cell death (photographs) ([4]; 10 μM 5FU, 10 μM ibrutinib, singularly or in combination): no cell death
- cell death (photographs) ([4]; 5FU 200 μM): massive cell death
- response to the cytotoxic effect of 5FU [5]: sensitive
- mortality at 200 µM [6]: > 95%
- effective response (share of the cells) [7]: 10-15%
- effect on viability ([8]; 5FU 200 μM alone): little effect
- reduction of the tumor volume (significance) ([9]; 5FU 60 mpk, ibrutinib 25 mpk, 5FU+Ibr25 Vs. Ctrl p=0.012, Vs. Ibr25 p=0.039): did not cause a significant reduction
- average volume of the tumor masses [9, 21]: ≈ 530 mm^3
- average volume of the tumor masses [9, 22]: ≈ 530 mm^3
- response to the cytotoxic effect of 5FU [10]: resistant

Compound: C=CC(=O)Nc1cccc(Nc2nc(Nc3ccc(OCCOC)cc3)ncc2F)c1 [AVL-292]
- AVL-292 concentration from which sensitization to the cytotoxic effect of 5FU starts [11]: ≥ 20 µM
- cell death ([12]; 5 μM combined with 200 μM 5FU): 66.8%
- cell death ([12]; 10 μM alone): 19.9%
- cell death ([12]; 20 μM alone): 65.3%

Compound: C/C(O)=C(\C#N)C(=O)Nc1cc(Br)ccc1Br [LFM-A13, (2Z)-2-cyan-N-(2,5-dibromophenyl)-3-hydroxy-2-butenamide]
- percentage of cell deaths with LFM-A13 compared to without [13]: high percentage of tumor cell death
- percentage of cell deaths with LFM-A13 compared to without [14]: high percentage of tumor cell death
- level of reversion to the drug resistance, expressed as percentage fraction of dead cells [15]: comparable
- caspase 3/7 activation [16]: High levels

Compound: Cc1nc(Nc2ncc(C(=O)Nc3c(C)cccc3Cl)s2)cc(N2CCN(CCO)CC2)n1 [dasatinib]
- average volume of the tumor masses ([3]; 5FU 60 mg/kg, dasatinib 50 mpk): ≈ 343 mm^3
- average volume of the tumor masses [9, 21]: ≈ 355 mm^3

Compound: bevacizumab: monoclonal antibody used in anti-cancer therapy for targeting VEGF
- cell viability [17]: does not affect

Compound: panitumumab: monoclonal antibody used in anti-cancer therapy for targeting EGFR
- cell viability [17]: does not affect

Compound: C=CC(=O)N1CCC[C@@H](n2nc(-c3ccc(Oc4ccccc4)cc3)c3c(N)ncnc32)C1 [ibrutinib]
- number of cells (100% = living cells at day 0) [18]: below 100%
- cytotoxicity [19]: not cytotoxic
- average volume of the tumor masses ([3]; 5FU 60 mpk, ibrutinib 25 mpk): ≈ 347 mm^3
- average volume of the tumor masses ([3]; 5FU 60 mpk, ibrutinib 50 mpk): ≈ 372 mm^3
- percentage of live HCT116p53KO cells (100% = living cells at day 0) ([8]; 10 μM ibrutinib): 130.2%
- percentage of live HCT116p53KO cells (100% = living cells at day 0) ([8]; 20 μM ibrutinib): 116.1%
- average volume of the tumor masses [9, 22]: ≈ 760 mm^3

Source: US9820987B2, “Modulator compounds of drug resistance in epithelial tumor cells” (BIONSIL S.R.L. in Liquidazione, priority 2007, dated 2017)
